{
  "source": "patent US20250032581A1",
  "about": "“COMPOSITIONS AND ARTICLES COMPRISING AN ADNF POLYPEPTIDE” (RAMOT AT TEL-AVIV UNIVERSITY LTD., priority 2021, published 2025)",
  "key": {"Tyr mice [1]": {"tested_on": "Tyr mice", "experiment": "CatWalk gait analysis", "type": "in vivo, mouse", "description": "Animals—Animals were housed under a 12-hour light/dark cycle, with food and water ad-libitum. Mouse pups were subcutaneously administrated with NAP [having an amino acid sequence NAPVSIPQ (SEQ ID NO: 2), 25 μg NAP/1 ml saline] as described (8, 12). At 21 days of age mice were administered daily intranasal NAP in vehicle solution (“DD”—7.5 mg/ml of NaCl, 1.7 mg/ml of citric acid, 3 mg/ml of disodium phosphate dihydrate, and 0.2 mg/ml of 50% benzalkonium chloride solution) (0.5 μg NAP/5p1 DD) (8, 9, 12, and U.S. Pat. No. 10,912,819 to Gozes). These mice continued to behavioral analysis as described hereinbelow. The noninvasive intranasal route was chosen as these experiments required daily handling and administration. Age (weeks) of mice during behavioral experiments (mean±SEM) was as follows: Catwalk—9.23±0.15, grooming—10±0.15, social approach—10.5±0.12, odor-discrimination—12.12±0.13, hanging-wire—13±0.14, hotplate—13.18±0.13. Group size was determined following previous experiments (12). Pups were randomly allocated to either the NAP or DD group according to sex and genotype. All procedures involving animals were conducted under the supervision and approval of the institutional animal care and use committee of Tel Aviv University and the Israeli Ministry of Health.\nCatwalk—Was performed as previously described (12).\nBriefly, for ear twitch reflex, a cotton tip was gently brushed against the tip of the ear three times, between postnatal days 7-15 or until the pup responded correctly for two consecutive days. For air righting reflex, the pup was held up-side down and released ˜10.5 cm above the cage, containing 5 cm of shavings. The test was performed between postnatal days 8-21 or until the pup landed on the shavings with all four paws, for two consecutive days. For surface righting reflex, pups were placed on their backs on a level surface, the test was performed between postnatal days 1-13 until the pups was able to right itself with all four paws on the surface in under a second for two consecutive days. For eye opening, mice were observed daily until both eyes were open (eyelids separated completely). For auditory startle, the pup was placed on a level surface and the experimenter clapped loudly twice until a visible startle response was evident for 2 consecutive days. The test was performed between days 7-18. For cliff aversion, pups were placed on the edge of a small box (approx. 4 cm in height) with both paws protruding over the edge of the box. Pups were allowed 30 sec to avoid the cliff and move themselves backwards. Test was performed between day 1-14 until the pup avoided the cliff in under 30 sec for two consecutive days^9. For the rooting reflex, a cotton tip was gently brushed against the sides of the pup's mouth until the pup moved its head to the direction of the stroke. Both sides were tested twice. […] All tests were conducted between 10 AM-4 PM. For the first 5 postnatal days, each pup was put under a single 60-watt bulb during testing to assure the pups' warmth. • Novel object recognition: Briefly, the open field test was used for the first day of habituation since both tests are conducted in the same arena. The following day animals underwent another habituation to the arena (5 mins). As described, the test included two consecutive days of habituation and the experimental days which consisted of the three phases. […]"}, "Tyr mice [2]": {"tested_on": "Tyr mice", "experiment": "Ultrasonic vocalizations (USV) and syntax analysis of P8 pups (DeepSqueak)", "type": "in vivo, mouse", "description": "The Intensity parameter is used to assess the effects of neuropathic pain, including mechanical allodynia. Max Contact Mean Intensity is the mean Intensity of a paw at Max Contact. Print length is the length (horizontal direction) of the complete print. The complete print is the sum of all contacts with the glass plate, as if the animal's paw would have been inked. Print width is the width (vertical direction) of the complete paw. Print area is the surface area of the complete print. Max Intensity is the maximum Intensity of the complete paw. Mean intensity is the mean Intensity of the complete paw. • USV: On P8, each pup was separated from the dam and placed in an empty cage for 6 minutes, in a quiet room and was recorded using the M500-384 USB Ultrasound Microphone (Petterson, Sweden). Pups were distinguished from one another using the tattoos listed above. After 6 minutes pups were reunited with its dam. Data were analyzed using DeepSqueak. Data were loaded onto DeepSqueak, frequencies between 40-70 kHz were analyzed using the mouse call network V2. Calls were denoised using post hoc denoising network. For syntax analysis, Syntax was classified using Wright K means network. Syntax transition probability charts were generated using DeepSqueak and Matlab. Further USV experiments were performed on P8 pups as previously described (12) with slight modifications."}, "Tau, tubulin": {"tested_on": "Tau, tubulin", "experiment": "Polymerized vs. soluble tubulin assay", "type": "cell-based, mouse", "settings": "zinc 400 μM, 4 h, peptide 10^−12M", "description": "Polymerized vs. soluble tubulin assay—To quantify tubulin polymerization and Tau-MT association, a simple assay was performed as previously described. The cells grown to confluence in six-well plates were washed with MT buffer (80 mM PIPES pH 6.8, 1 mM MgCl^2, 2 mM EGTA, 5% Glycerol) and lysed at room temperature for 5 min through centrifugation (300 g), with 150 μl of MT buffer with 0.5% Triton X-100 to extract soluble (cytosolic) tubulin (S). The pelleted cells were rinsed once again with an equal volume of modified RIPA lysis buffer (50 mM Tris-HCL pH 7.4, 150 mM NaCl, 2 mM EGTA, 1% Triton X-100, 0. 1% SDS, 0.1% sodium Deoxycholate) to collect the polymerized (cytoskeletal) tubulin (P). The cytosolic and cytoskeletal fractions were each mixed with sample buffer and heated at 95° C. for 5 min. An equal volume of each fraction was analyzed by immunoblotting with Tau, tubulin and actin antibodies, and the results following ECL development were quantified by densitometry (GelQuant.NET software provided by biochemlabsolutions(dot)com).\nIt is known that in the presence of extracellular zinc NAP protects MT against degradation by promoting Tau binding to the MT shaft. Polymerized vs. soluble tubulin assay was effected to compare protective activities of NAP and SKIP against MT degradation and Tau-MT dissociation (FIGS. 11F-G). After treatments with zinc (400 μM, 4 h) with and without NAP or SKIP (10^−12M, 4 h) the cellular-tubulin pool was separated into polymerized and soluble tubulin fractions. The amount of Tau, tubulin, and actin was identified by immunoblotting (FIG. 11F), followed by densitometric quantification (FIG. 11G)."}, "BTBR mouse": {"tested_on": "BTBR mouse", "experiment": "Social recognition in the BTBR mouse", "type": "in vivo"}, "[3]": {"settings": "adult patients; cited from earlier work"}},
  "data": [
    {"molecule": "CC[C@H](C)[C@H](NC(=O)[C@H](CO)NC(=O)[C@@H](NC(=O)[C@@H]1CCCN1C(=O)[C@H](C)NC(=O)[C@@H](N)CC(N)=O)C(C)C)C(=O)N1CCC[C@H]1C(=O)N[C@@H](CCC(N)=O)C(=O)O", "note": "[NAP, NAPVSIPQ]", "values": [
      {"measurement": "gait", "setting": "Tyr mice [1]; WT mice, data not shown", "result": "No major NAP effect was observed in WT mice"},
      {"measurement": "gait: intensity parameters", "setting": "Tyr mice [1]; female Tyr mice", "result": "significant NAP correction"},
      {"measurement": "gait: swing speed and swing duration", "setting": "Tyr mice [1]; female Tyr mice", "result": "ameliorated by NAP"},
      {"measurement": "gait: front base of support", "setting": "Tyr mice [1]; male Tyr mice", "result": "NAP correcting this phenotype in males"},
      {"measurement": "gait: print length and area", "setting": "Tyr mice [1]; male Tyr mice, daily intranasal NAP", "result": "significant NAP recovery"},
      {"measurement": "total USVs", "setting": "Tyr mice [2]; Tyr female and male P8 pups", "result": "no NAP effects"},
      {"measurement": "syntax", "setting": "Tyr mice [2]; WT pups, data not shown", "result": "minor varied impact on WT pups"},
      {"measurement": "syntax transition probabilities, Xi square analysis Tyr vs. Tyr NAP", "setting": "Tyr mice [2]; females, p<0.001", "result": "significant improvement with NAP treatment"},
      {"measurement": "syntax transition probabilities, Xi square analysis Tyr vs. Tyr NAP", "setting": "Tyr mice [2]; males, p=0.027", "result": "same significant changes"},
      {"measurement": "protection against Tau dissociation from MTs (soluble Tau ratio)", "setting": "Tau, tubulin", "result": "only NAP exhibited protection against Tau dissociation from MTs"},
      {"measurement": "protection of polymerized tubulin against zinc", "setting": "Tau, tubulin", "result": "protected against zinc-induced decay"},
      {"measurement": "social recognition", "setting": "BTBR mouse", "result": "preference of the mouse, rather than the cup=object chamber"},
      {"measurement": "efficacy in clinical studies", "setting": "[3]", "result": "enhancement of cognitive function and functional activities of daily living"}
    ]}
  ]
}
